Here are results for nine compounds from patent US20260272920A1, “NLRP3 MODULATORS” (Zomagen Biosciences Ltd, priority 2023, published 2026).

The subject of the experiment is NLRP3. The experiment in a line: IL-1β Assay in THP1 Cells (LPS priming + nigericin, NLRP3 activation). It is filed as cell-based. As to conditions: Homo sapiens, THP-1; THP1 cells primed with 100 ng/mL LPS, 10 μM nigericin 3 hours; IL-1β released in supernatant; read-out: IL-1b (IC50). How it is done:
Example 10: IL-1β Assay in THP1 Cells
THP1 cells were primed with 100 ng/mL LPS in test medium (RPMI1640+GlutaMAX+25 mM HEPES+10% HI FBS+1% Pen/Strep) overnight at 37° C. and 5% CO2. Compounds were serially diluted in test medium and added to 200 000 cells/well for 1 hour at 37° C. and 5% CO2. After 1 hour, nigericin was added at 10 μM final concentration and incubated in at 37° C. and 5% CO2 for 3 hours to induce NLRP3 activation. IL-1β released from THP1 was detected in the cell supernatant by the ELLA (Simple Plex, Bio-Techne) Human IL-1β Immunoassays. The average of the positive control (LPS+nigericin) and the negative control (LPS alone) was calculated. The % inhibition of each test well was calculated by the following formula: % inhibition per well=[(average of positive control−single well signal value)/(average of positive control−average of negative control)]*100%. The compound inhibition curve was fitted by using a four-parameter logistic dose response equation: compound concentration was converted into logarithm base 10, and its concentration and % inhibition is imported into Graphpad prism software.
Turning to `CCN1CCCC(C(O)c2cc(C)c(-c3ccc4c(F)c[nH]c4c3)nn2)C1` (stereo not drawn) [Compound 10, (1-ethylpiperidin-3-yl)(6-(3-fluoro-1H-indol-6-yl)-5-methylpyridazin-3-yl)methanol], the IC50 is < 500 nM.

Regarding `CCN1CCCC(C(O)c2cc(C)c(-c3ccc4cc[nH]c4c3)nn2)C1` (stereo not drawn) [Compound 12, (6-(1H-indol-6-yl)-5-methylpyridazin-3-yl) (1-ethylpiperidin-3-yl) methanol], the IC50 was < 500 nM.

With `Cc1cc(C(O)C2CCCN(C)C2)nnc1-c1ccc2occc2c1` (stereo not drawn) [Compound 16, (6-(benzofuran-5-yl)-5-methylpyridazin-3-yl)(1-methylpiperidin-3-yl)methanol], the IC50 is < 500 nM.

Regarding `CCN1CCCC(C(O)c2cc(C)c(-c3ccc4occc4c3)nn2)C1` (stereo not drawn) [Compound 17, (6-(benzofuran-5-yl)-5-methylpyridazin-3-yl)(1-ethylpiperidin-3-yl)methanol], the IC50 is < 500 nM.

Take `Cc1cc(C(O)C2CCCN(C)C2)nnc1-c1ccc(C(F)(F)F)cc1CC(F)(F)F` (stereo not drawn) [Compound 21, (5-methyl-6-(2-(2,2,2-trifluoroethyl)-4-(trifluoromethyl)phenyl)pyridazin-3-yl)(1-methylpiperidin-3-yl)methanol]: the IC50 was 500 to 3000 nM.

Take `Cc1cc([C@H](O)[C@@H]2CCCN(C)C2)nnc1-c1ccc(C(F)(F)F)cc1` [Compound 28, (R)-(5-methyl-6-(4-(trifluoromethyl)phenyl)pyridazin-3-yl)((R)-1-methylpiperidin-3-yl)methanol]: the IC50 fell in the range of 500 to 3000 nM.

Regarding `CCN1CCC[C@@H]([C@@H](O)c2cc(C)c(-c3ccc(C(F)(F)F)cc3)nn2)C1` [Compound 29, (R)-((R)-1-ethylpiperidin-3-yl)(5-methyl-6-(4-(trifluoromethyl)phenyl)pyridazin-3-yl)methanol], the IC50 was < 500 nM.

Consider `Cc1cc([C@H](O)[C@@H]2CCCN(C)C2)nnc1-c1ccc(C(F)(F)F)cc1OC(F)F` [Compound 31, (R)-(6-(2-(difluoromethoxy)-4-(trifluoromethyl)phenyl)-5-methylpyridazin-3-yl)((R)-1-methylpiperidin-3-yl)methanol], for which the IC50 is < 500 nM.

`CCN1CCC[C@@H]([C@@H](O)c2cc(C)c(-c3ccc(C(F)(F)F)cc3OC(F)F)nn2)C1` [Compound 33, (R)-(6-(2-(difluoromethoxy)-4-(trifluoromethyl)phenyl)-5-methylpyridazin-3-yl)((R)-1-ethylpiperidin-3-yl)methanol]: the IC50 was < 500 nM.

One may read the IC50 as the midpoint of a concentration-inhibition curve.
